US20220380375A1, “SUBSTITUTED AROMATIC FUSED RING DERIVATIVE AND COMPOSITION COMPRISING SAME, AND USE THEREOF” (Shenzhen TargetRx, Inc., priority 2019, published 2022)
pIC50: −log10 of the molar value. Marks after values point to notes of the source that are not given here.

Tests used:
[1] = test system: Ba/F3 KIF5B-RET^G810R cell line tumor model; assay: Anti-tumor effect assay in Ba/F3 KIF5B-RET^G810R cell line tumor model (allograft); format: in vivo, female NPSG mice; conditions: for Tumor volume (x ± S), Day 0 of administration / Tumor volume (x ± S), Day 13 of administration / TGI (%), Day 13 of administration: Ba/F3 KIF5B-RET^G810R model; for Tumor volume (x ± S), Day 0 of administration: 25 mg/kg p.o. QD × 13, day 0 (baseline); for Tumor volume (x ± S), Day 13 of administration / TGI (%), Day 13 of administration: 25 mg/kg p.o. QD × 13, day 13; for TGI (%), Day 13 of administration: TGI more than 100% = decrease in tumor volume; for relative tumor inhibition rate TGI (%): day 13 of administration, AD80 group 25 mg/kg
Description: (§1) The efficacy of compounds of the present disclosure in female NPSG mouse allograft models of two B-cell lymphoma cell lines Ba/F3 KIF5B-RET and Ba/F3 KIF5B-RET^G810R was verified.
(§2) Assay animals: Female NPSG mice, 6-8 weeks old (age of mice at the time of tumor cell inoculation), weighing 18-20 g, 60 mice, purchased from Shanghai Jihui Laboratory Animal Care Co., Ltd.
(§3) Assay methods: 1) Ba/F3 KIF5B-RET and Ba/F3 KIF5B-RET^G810R cells were respectively resuscitated and Cultured in vitro, and 3×10^7 cells of each type were obtained. 2) 60 female NPSG mice aged 6-8 weeks were adaptively bred for 1 week and then weighed. 4) After inoculation, tumor volume and body weight were measured once a week. When average tumor volume reached about […], mice inoculated with each type of Ba/F3 cells were randomly divided into 7 groups according to tumor volume and body weight, with 3 mice in each group. The administration was started immediately after grouping. The date of start of administration was regarded as day 0. Informations on administration and grouping were shown in Tables 5 and 6.5) After the start of the administration, the body weight and tumor volume of mice were measured twice a week. 6) After the end of the administration, the assay was over.
(§4) Assay observation and data collection: After tumor inoculation, morbidity and death of animals were observed every working day. Daily observation included tumor growth and effects of drugs on laboratory animals, such as changes in activity, changes in feeding and drinking, weight loss, changes in appearance of hair and eye, death and other clinical symptoms. Formula for calculating tumor volume is: tumor volume (mm^3)=½×(a×b^2) (wherein a represents the long diameter and b represents the short diameter)
(§5) Relative tumor inhibition rate TGI (%): TGI %=(1−T/C)×100%. T/C % is relative tumor proliferation rate, that is, a percentage value of relative tumor volume between treatment group and control group at a certain point in time. T and C are relative tumor volume (RTV, that is, the […] tumor volume at this time point and tumor volume at day 0) of treatment group and control group at a certain point in time, respectively.
(§6) Statistical analysis: For pairwise comparison, a T-Test analysis method was used, and for comparison of three or more groups, a One-Way ANOVA method was used. For comparison of potential synergistic effects, a Two-way ANOVA was used. SPSS 24.0 was used for all data. A p value less than 0.05 was considered a significant difference.

[2] = test system: Ba/F3 KIF5B-RET cell line tumor model; assay: Anti-tumor effect assay in Ba/F3 KIF5B-RET cell line tumor model (allograft); format: in vivo, female NPSG mice; conditions: for Tumor volume (x ± S), Day 0 of administration: 10 mg/kg p.o. QD × 14, day 0 (baseline); for TGI (%), Day 14 of administration / Tumor volume (x ± S), Day 14 of administration: 10 mg/kg p.o. QD × 14, day 14
Description: as §1, §2, §3, §4, §5, §6

[3] = target: T1, RET V804M (Homo sapiens, UniProt P07949, V804M); assay: Inhibition of kinase, RET V804M (HTRF KinEASE-TK); format: biochemical
T1 construct: purchased Signalchem R02—12GG
T1 sequence (P07949 29-1114 V804M): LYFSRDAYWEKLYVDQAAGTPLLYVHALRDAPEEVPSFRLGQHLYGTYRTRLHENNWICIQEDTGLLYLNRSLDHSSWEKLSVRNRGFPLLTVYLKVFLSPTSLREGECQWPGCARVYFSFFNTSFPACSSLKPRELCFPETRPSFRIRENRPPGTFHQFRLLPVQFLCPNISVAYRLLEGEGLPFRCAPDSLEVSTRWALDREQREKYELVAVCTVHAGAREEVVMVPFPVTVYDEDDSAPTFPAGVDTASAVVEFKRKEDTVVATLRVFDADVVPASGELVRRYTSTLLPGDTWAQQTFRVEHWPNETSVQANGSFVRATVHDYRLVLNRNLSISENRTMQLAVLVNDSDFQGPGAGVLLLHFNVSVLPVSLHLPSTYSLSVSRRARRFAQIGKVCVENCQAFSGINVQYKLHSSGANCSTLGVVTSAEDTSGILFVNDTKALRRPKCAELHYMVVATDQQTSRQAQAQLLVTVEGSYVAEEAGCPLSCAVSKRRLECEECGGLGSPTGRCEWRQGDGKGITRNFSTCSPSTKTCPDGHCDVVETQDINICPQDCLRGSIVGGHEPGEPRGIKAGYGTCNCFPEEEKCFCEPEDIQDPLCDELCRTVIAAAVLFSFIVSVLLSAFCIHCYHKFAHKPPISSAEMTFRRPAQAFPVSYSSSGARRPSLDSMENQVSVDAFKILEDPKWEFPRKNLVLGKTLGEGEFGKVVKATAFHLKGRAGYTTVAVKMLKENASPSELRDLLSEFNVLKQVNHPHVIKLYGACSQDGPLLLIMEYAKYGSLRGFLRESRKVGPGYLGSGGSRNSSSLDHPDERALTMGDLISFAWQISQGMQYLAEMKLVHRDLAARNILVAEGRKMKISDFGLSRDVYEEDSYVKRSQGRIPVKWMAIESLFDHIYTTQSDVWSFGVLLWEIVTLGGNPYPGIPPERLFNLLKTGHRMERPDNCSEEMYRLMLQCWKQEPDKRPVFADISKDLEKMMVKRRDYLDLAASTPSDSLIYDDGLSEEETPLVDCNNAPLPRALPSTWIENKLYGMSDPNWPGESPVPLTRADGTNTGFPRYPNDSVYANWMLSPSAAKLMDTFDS
Method: (§7) Ret wt (Carna, Cat. No. 08-159-10 ug), RET (V804M), Active (Signalchem. Cat. No. R02—12GG), HTRF KinEASE-TK kit (Cisbio, Cat. No.62TK0PEC), CEP-32496 (MCE, Cat. No. HY-15200), ATP (Sigma. Cat. No. A7699), DMSO (Sigma, Cat. No. D8418-1L), DTT (Sigma, Cat. No. D0632), MgCl2(Sigma, Cat. No. M1028), 384-well plate (Labcyte, Cat. No. P-05525-BC).
(§8) Formulation of compound: The test compounds were dissolved in DMSO to obtain 10 mM stock solutions, which were then serially diluted 3-fold in DMSO to obtain 10 concentrations. At the time of addition, the compound was further diluted 10-fold with buffer.
(§9) In 5×kinase buffer A, Ret wt or RET V804M kinase was mixed with different concentrations of compounds prepared by pre-dilution for 10 minutes. Each concentration was tested in duplicate. The corresponding substrate and ATP were added, and reaction was performed at room temperature for 20 minutes (negative and positive controls were provided: the negative control was a blank control, and the positive control was CEP-32496 (Agerafenib)). After completion of the reaction, detection reagents (reagents in the HTRF KinEASE-TK kit) were added. After incubating for 30 minutes at room temperature, enzyme activity in the presence of various concentrations of the compounds of the present disclosure was determined by Envision microplate reader, and inhibitory activity of different concentrations of the compounds on enzyme activity was calculated. The inhibitory activity of different concentrations of the compounds on enzyme activity was fitted by Graphpad 5.0 software, and the IC50 value was calculated.

[4] = target: T2, Ret wt (Homo sapiens, UniProt P07949); assay: Inhibition of kinase, Ret wt (HTRF KinEASE-TK); format: biochemical
T2 construct: purchased Carna 08-159-10 ug
T2 sequence (P07949 29-1114): as the sequence (P07949 29-1114 V804M) above, with M776V counted along it
Method: as §7, §8, §9

SMILES	Tumor volume (x ± S), Day 0 of administration [1] [mm^3]	Tumor volume (x ± S), Day 13 of administration [1] [mm^3]	TGI (%), Day 13 of administration [1]	relative tumor inhibition rate TGI (%) [1] [%]	Tumor volume (x ± S), Day 0 of administration [2] [mm^3]	TGI (%), Day 14 of administration [2] [%]	Tumor volume (x ± S), Day 14 of administration [2] [mm^3]	pIC50 [3]	pIC50 [4]
CC(C)n1nc(-c2ccc(NC(=O)Nc3cc(C(F)(F)F)ccc3F)cc2)c2c(N)ncnc21 [AD80, reference compound]	94.7 ± 5.24	185.7 ± 33.65	75.2%	75.2	100.3 ± 4.33	46.4	821.7 ± 54.5	–	–
CC(C)n1nc(-c2ccc(CC(=O)Nc3cc(C(C)(C)C(F)(F)F)on3)cc2)c2c(N)ncnc21 [Compound T-1, 2-(4-(4-amino-1-isopropyl-1H-pyrazolo[3,4-d]pyrimidin-3-yl)phenyl)-N-(5-(1,1,1-trifluoro-2-methylprop-2-yl)isoxazol-3-yl)acetamide]	98 ± 3.61	63.7 ± 16.19	109.4%#	109.4	102.7 ± 6.06	90.3	233 ± 65.74	≥ 9.30	≥ 9.30
CC(C)n1nc(-c2ccc(NC(=O)Nc3cc(C(C)(C)C(F)(F)F)on3)cc2)c2c(N)ncnc21 [Compound T-2, 1-(4-(4-amino-1-isopropyl-1H-pyrazolo[3,4-d]pyrimidin-3-yl)phenyl)-3-(5-(1,1,1-trifluoro-2-methylprop-2-yl)isoxazol-3-yl)urea]	94.3 ± 3.84	150.7 ± 4.33	84.6%	84.6	102 ± 5.51	63.9	588.7 ± 25.3	8.00 to 9.00	≥ 9.30
CC(C)n1cc(-c2ccc(CC(=O)Nc3cc(C(C)(C)C(F)(F)F)on3)cc2)c2c(N)ncnc21 [Compound T-3, 2-(4-(4-amino-7-isopropyl-7H-pyrrolo[2,3-d]pyrimidin-5-yl)phenyl)-N-(5-(1,1,1-trifluoro-2-methylprop-2-yl)isoxazol-3-yl)acetamide]	102 ± 7.77	132.7 ± 11.78	91.6%	91.6	104 ± 10.44	96.3	153.7 ± 13.22	8.00 to 9.00	≥ 9.30
CC(C)c1nc(-c2ccc(CC(=O)Nc3cc(C(C)(C)C(F)(F)F)on3)cc2)c2c(N)nccn12 [Compound T-4, 2-(4-(8-amino-3-isopropylimidazo[1,5-a]pyrazin-1-yl)phenyl)-N-(5-(1,1,1-trifluoro-2-methylprop-2-yl)isoxazol-3-yl)acetamide]	–	–	–	–	–	–	–	8.00 to 9.00	≥ 9.30
CC(C)n1nc(-c2ccc(CC(=O)Nc3cc(C(C)(C)C(F)(F)F)on3)c(F)c2)c2c(N)ncnc21 [Compound T-6, 2-(4-(4-amino-1-isopropyl-1H-pyrazolo[3,4-d]pyrimidin-3-yl)-2-fluorophenyl)-N-(5-(1,1,1-trifluoro-2-methylprop-2-yl)isoxazol-3-yl)acetamide]	93 ± 8.33	89.7 ± 4.48	100.9%#	100.9	104 ± 3.61	99.7	108.7 ± 31.33	9.00 to 9.30	≥ 9.30
CC(C)n1nc(-c2ccc(CC(=O)Nc3cc(C(C)(C)C(F)(F)F)on3)cn2)c2c(N)ncnc21 [Compound T-7, 2-(6-(4-amino-1-isopropyl-1H-pyrazolo[3,4-d]pyrimidin-3-yl)pyridin-3-yl)-N-(5-(1,1,1-trifluoro-2-methylprop-2-yl)isoxazol-3-yl)acetamide]	–	–	–	–	–	–	–	8.00 to 9.00	8.00 to 9.00
CC(C)n1nc(-c2ccc(CC(=O)Nc3cc(C(C)(C)C(F)(F)F)no3)cc2)c2c(N)ncnc21 [Compound T-8, 2-(4-(4-amino-1-isopropyl-1H-pyrazolo[3,4-d]pyrimidin-3-yl)phenyl)-N-(3-(1,1,1-trifluoro-2-methylprop-2-yl)isoxazol-5-yl)acetamide]	96.7 ± 6.74	90.7 ± 8.41	101.6%#	101.6	101.3 ± 4.33	95.4	163.7 ± 19.74	–	–
[2H]C([2H])([2H])C(n1nc(-c2ccc(CC(=O)Nc3cc(C(C)(C)C(F)(F)F)no3)cc2)c2c(N)ncnc21)C([2H])([2H])[2H] [Compound T-11, 2-(4-(4-amino-1-(propan-2-yl-1,1,1,3,3,3-d6)-1H-pyrazolo[3,4-d]pyrimidin-3-yl)phenyl)-N-(3-(1,1,1-trifluoro-2-methylpropan-2-yl)isoxazol-5-yl)acetamide]	–	–	–	–	–	–	–	8.00 to 9.00	8.00 to 9.00
[2H]C([2H])([2H])C(n1cc(-c2ccc(CC(=O)Nc3cc(C(C)(C)C(F)(F)F)on3)cc2)c2c(N)ncnc21)C([2H])([2H])[2H] [Compound T-12, 2-(4-(4-amino-7-(propen-2-yl-1,1,1,3,3,d6)-7H-pyrrolo[2,3-d]pyrimidin-5-yl)phenyl)-N-(5-(1,1,1-trifluo-2-methylpropan-2-yl)isoxazol-3-yl)acetamide]	–	–	–	–	–	–	–	8.00 to 9.00	7.30 to 8.00
